Measurements taken from patent publication US8969295B2, “Identifying and modulating molecular pathways that mediate nervous system plasticity” (Massachusetts Institute of Technology, priority 2006, dated 2015).
“Also recorded” adds a separate entry of the source.

Experiments:
[1] = test system: PKC; settings: Nishiyama et al., 2003; cited from earlier work
[2] = test system: cGMP; settings: Leamey et al., 2001; cited from earlier work
[3] = test system: binocular portion of V1; assay: Optical imaging of intrinsic signals in V1: ocular dominance after monocular deprivation (MD) with IGF1; type: in vivo, mouse
Protocol: For monocular deprivation, animals were anesthetized with avertin (0.016 ml/g) and the eyelids of one eye were sutured (at P20-22 for 7 days for imaging experiments). Before imaging, the suture was removed and the deprived eye re-opened. Only animals in which the deprivation sutures were intact and the condition of the deprived eye appeared healthy were used for the imaging session. For DR animals (aged P27-30), the procedure was the same described above, with the exception that the animals were anesthetized in darkness and not exposed to light until deeply anaesthetized; in these mice only the binocular response was evaluated and compared to that in control animals.
Mice (129/SvEv and C57B1/6) aged P26-30 were anesthetized with urethane (1.5 g/Kg) and chlorprothixene (0.2 mg), as described^84. Skin was excised and the skull exposed over V1. A custom-made attachment was used to fix the head and minimize movements. The cortex was covered with agarose solution (1.5%) and a glass cover slip. During the imaging session the animal's body temperature was kept constant with a heating blanket and the EKG monitored constantly. […]
A temporal high pass filter (135 frames) was employed to remove slow noise components, after which the temporal Fast Fourier Transform (FFT) component at the stimulus frequency ([…]) was calculated pixel by pixel from the whole set of images. […]

[4] = test system: IGF1 receptor (IGF1R); assay: Immunostaining in V1 after MD with concurrent IGF1; type: in vivo, mouse; settings: short-term (4 days) MD + daily IP IGF1
Protocol: (§1) In additional experiments in which the effects of short-term (4 days from P23-27) MD were investigated, as well the effects of IGF1 infusion concurrent with MD, a total of four experimental groups were analyzed: a new group of control animals (3 samples), the ipsilateral and the contralateral cortex of mice monocularly deprived for four days (3 samples for the ipsilateral and 3 samples for the contralateral cortex), the contralateral cortex of mice that were monocularly deprived for four days and were injected IP daily with IGF1 solution (3 samples). Tissue was removed and the RNA extracted as described above, and labeled RNA was hybridized to the Affymetrix mouse genome 430.2 chip, which contains oligonucleotides that correspond to a total of 42,000 probes targeting genes and ESTs.
(§2) Mice were anesthetized and transcardially perfused with a solution of 4% paraformaldehyde. The appropriate brain hemispheres were removed and equilibrated in 30% sucrose in PBS. Coronal sections containing visual cortex were cut using a freezing microtome. Immunohistochemistry for GluR1 (1:500, Upstate), IGFBP5 (1:500, USBiological), CaMK2alpha (1:500, Sigma), PhosphoCREB (1:500, Cell Signaling), activated Stat1 (1:500, Abcam), parvalbumin (1:1000, Chemicon), calretinin (1:500, Chemicon), somatostatin (1:300, Chemicon), neuropeptideY (1:400, Chemicon), synapsin 1 (1:500, Chemicon), IGF1 (1:250, Chemicon), GAD 67 (1:400, Chemicon), IGF1R (1:500, Upstate), PI3K—catalytic subunit 110 (1:400, Upstate), phosphorylated-Akt (1:250, Cell Signaling), was carried out as described elsewhere^82,83. For each staining, analysis was repeated in parallel for control and deprived animals. Experiments were carried out at least on two animals for each group and repeated twice. The intensity of staining in sections from control and deprived animals was evaluated with ImageJ software (rsb.info.nih.gov/ij/). Counts of parvalbumin, calretinin, somatostatin and NPY-positive cells were performed as described elsewhere^29.
(§3) For IGF1 treatment, a solution containing GPE, the functional peptide of IGF1, was prepared as described^56: 300 μg of GPE was injected intra-peritoneally daily for the entire period of deprivation. This peptide is referred to as “IGF1” in the Results below.

[5] = test system: IGFBP5; assay: Immunostaining in V1 after MD with concurrent IGF1; type: in vivo, mouse; settings: short-term (4 days) MD + daily IP IGF1, cortex contralateral to deprived eye
Protocol: as §1, §2, §3

[6] = test system: Phosphatidylinositol 3-Kinase (PI3K); assay: Immunostaining in V1 after MD with concurrent IGF1; type: in vivo, mouse; settings: short-term (4 days) MD + daily IP IGF1; P<0.05
Protocol: as §1, §2, §3

[7] = test system: phosphorylated-Akt; assay: Immunostaining in V1 after MD with concurrent IGF1; type: in vivo, mouse; settings: short-term (4 days) MD + daily IP IGF1
Protocol: as §1, §2, §3

[8] = test system: synapsin 1; assay: Immunostaining in V1 after MD with concurrent IGF1; type: in vivo, mouse; settings: short-term (4 days) MD + daily IP IGF1; P<0.05
Protocol: as §1, §2, §3

[9] = test system: IGFBP5; assay: Microarray analysis of MD+IGF1 animals versus MD animals; type: in vivo, mouse; settings: 4 days MD + daily IP IGF1, contralateral cortex; P<0.01
Protocol: as §1
(§4) A method for the Significance Analysis of Microarrays to assess changes in gene expression was used^31, and the method was implemented in MATLAB (The Mathworks, Natick, Mass.). The method allows the comparison of the expression level of each gene under two conditions (e.g., MD vs. control; or DR vs. control). […] Correlations between replicates were calculated as correlation coefficients (c.c.) for all conditions: control (c.c.=0.99±0.002), MD 16 days (c.c.=0.9±0.05), MD 4 days contralateral (c.c.=0.99±0.001), MD 4 days ipsilateral (0.99±0.005), MD 4 days contralateral plus IGF1 (c.c.=0.99±0.004). […]

[10] = test system: PI3K; assay: as above; type: in vivo, mouse; settings: 4 days MD + daily IP IGF1, contralateral cortex; P<0.01
Protocol: as §1, §4

[11] = test system: visual cortex gene expression; assay: Microarray analysis of MD+IGF1 animals versus MD animals, all genes; type: in vivo, mouse; settings: 4 days MD + daily IP IGF1, microarray
Protocol: as §1, §4

[12] = test system: ischemia in the CNS; settings: intra-peritoneal administration; cited from earlier work
[13] = in vivo; cited from earlier work

CN(C)CCCn1cc(C2=C(c3c[nH]c4ccccc34)C(=O)NC2=O)c2ccccc21 [GF109203X]
Effective doses in slices [1]: 10 to 100 µM

O=c1onc2cnc3ccccc3n12 [ODQ]
effective dose for influencing axon growth [2]: about 10 μM

IGF1: GPE, the functional peptide of IGF1 (tripeptide), referred to as IGF1 in the Results of Example 4 (Insulin-like growth factor I; UniProt P05019 49-51, looked up, fragment)
shift of mean ocular dominance index across animals relative to control ([3]; 7 days MD + IGF1 i.p., n=3, P>0.2 vs control): prevented the shift | ocular dominance shift towards the open eye (ocular dominance distribution of pixels within the binocular zone) ([3]; 7 days MD during critical period, 300 μg GPE intra-peritoneally daily for the period of deprivation): prevented the ocular dominance shift towards the open eye; also recorded: prevents the ocular dominance shift | Expression of the IGF1 receptor (IGF1R), immunostaining in V1 [4]: partially restored | IGFBP5 immunostaining in V1 [5]: no change from normal levels | PI3K expression, immunostaining in V1 [6]: fully restored | Expression of phosphorylated-Akt, immunostaining in V1 [7]: restored | level of synapsin expression, immunostaining for synapsin 1 in V1 [8]: significant increase | IGFBP5 microarray expression compared to MD alone [9]: significantly downregulated | PI3K microarray expression compared to MD alone [10]: upregulated | genes significantly altered in expression in MD+IGF1 animals compared to MD animals [11]: only a small fraction of genes was significantly altered | effects of ischemia in the CNS [12]: prevents the effects of ischemia in the CNS | ability to cross the blood brain barrier [13]: able to cross the blood brain barrier
